From patent publication US20220194938A1, “NOVEL COMPOUNDS AND PHARMACEUTICAL COMPOSITIONS THEREOF FOR THE TREATMENT OF INFLAMMATORY DISORDERS” (GALAPAGOS NV, priority 2019, published 2022) come the findings set out here.

Structures are written as SMILES. pIC50: −log10 of the molar value.

In data set [1] the test system is pooled cryopreserved hepatocytes. Description: Metabolic stability in hepatocytes (human). The format is in vitro ADME. The conditions noted are these: 1 μM test compound. Put shortly: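 Test compound at 1 μM (0.03% DMSO) incubated with 0.5 million viable pooled cryopreserved hepatocytes/mL at 37° C with shaking; sampled 0–180 min. Parent loss measured by LC-MS/MS versus time-zero, and intrinsic clearance derived from percentage-remaining plots, scaled to L/h/kg and corrected for hepatocyte binding.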

For another data set, the target named is T1, human IRAK-4 (Homo sapiens, UniProt Q9NWZ3).
T1 construct: purchased Carna Biosciences 09 145
T1 sequence (Q9NWZ3 1-460): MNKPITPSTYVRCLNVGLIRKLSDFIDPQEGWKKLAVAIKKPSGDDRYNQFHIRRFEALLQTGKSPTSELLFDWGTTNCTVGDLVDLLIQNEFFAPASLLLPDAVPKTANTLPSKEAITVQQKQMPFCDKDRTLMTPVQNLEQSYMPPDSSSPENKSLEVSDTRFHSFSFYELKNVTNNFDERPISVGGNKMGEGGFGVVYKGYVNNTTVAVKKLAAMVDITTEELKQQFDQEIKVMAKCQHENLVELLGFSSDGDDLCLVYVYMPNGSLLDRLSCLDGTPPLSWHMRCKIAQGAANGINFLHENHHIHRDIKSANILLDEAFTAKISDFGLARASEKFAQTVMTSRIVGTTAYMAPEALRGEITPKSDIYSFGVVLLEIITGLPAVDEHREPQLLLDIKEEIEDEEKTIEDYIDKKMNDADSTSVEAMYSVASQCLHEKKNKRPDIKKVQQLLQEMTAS
Description: Phosphorylation IC50 determination for human IRAK-4 (ADP-Glo kinase assay). As to conditions: human IRAK-4, RIP140 substrate, Km ATP; read-out: IRAK4 ADPglo biochemical assay IC50. The procedure, abridged: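 IRAK-4 phosphorylation of RIP140 at Km ATP in Tris pH 7.5 buffer with Triton X-100, EGTA, MgCl2, DTT and MnCl2, 120 min at room temperature. ADP formed was measured by ADP-Glo luminescence. Ten-point, 5-fold dilutions (highest final 20 μM, automated format; 1% DMSO), normalised to staurosporine (100%) and DMSO (0%) controls.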

Usually pIC50 stands for −log10 of the IC50, conventionally taken in molar units. On to `COc1cc2nc(CCC(C)(C)O)cn2cc1NC(=O)c1cccn(C2CCC2)c1=O` [Compound 18, 1-cyclobutyl-N-[2-(3-hydroxy-3-methyl-butyl)-7-methoxy-imidazo[1,2-a]pyridin-6-yl]-2-oxo-pyridine-3-carboxamide], for which the “Human (Perc. remaining at 90 min)” value in data set [1] worked out at 93.95%. The pIC50 on human IRAK-4 was 8.30 to 10.00.
Taken in the same sequence, the figures for `COc1cc2nc(CCC(C)(C)O)cn2cc1NC(=O)c1cccn(CC(F)(F)F)c1=O` [Compound 13, N-[2-(3-hydroxy-3-methyl-butyl)-7-methoxy-imidazo[1,2-a]pyridin-6-yl]-2-oxo-1-(2,2,2-trifluoroethyl)pyridine-3-carboxamide] were 105.95% and below 7.30.
Consider `COc1cc2nc(CCC(C)(C)O)cn2cc1NC(=O)c1cccc(C(F)(F)F)n1` [Compound 3, N-[2-(3-hydroxy-3-methyl-butyl)-7-methoxy-imidazo[1,2-a]pyridin-6-yl]-6-(trifluoromethyl)pyridine-2-carboxamide], for which the “Human (Perc. remaining at 90 min)” value in data set [1] amounted to 94.55%. Also, the pIC50 on human IRAK-4 was 8.30 to 10.00.
